Reference: publication PMC6733653 (Insect biochemistry and molecular biology, 2019)
Where a name gives a salt, the structure may show the parent alone.

Key:
Test in all cases: two-electrode voltage clamp, Xenopus oocytes, concentration-response
Assay type in all cases: cell-based
CquiOR4 [1] = target: T1, CquiOR4 (Culex quinquefasciatus, UniProt A0A3G1T0B0)
T1 sequence (A0A3G1T0B0 1-391): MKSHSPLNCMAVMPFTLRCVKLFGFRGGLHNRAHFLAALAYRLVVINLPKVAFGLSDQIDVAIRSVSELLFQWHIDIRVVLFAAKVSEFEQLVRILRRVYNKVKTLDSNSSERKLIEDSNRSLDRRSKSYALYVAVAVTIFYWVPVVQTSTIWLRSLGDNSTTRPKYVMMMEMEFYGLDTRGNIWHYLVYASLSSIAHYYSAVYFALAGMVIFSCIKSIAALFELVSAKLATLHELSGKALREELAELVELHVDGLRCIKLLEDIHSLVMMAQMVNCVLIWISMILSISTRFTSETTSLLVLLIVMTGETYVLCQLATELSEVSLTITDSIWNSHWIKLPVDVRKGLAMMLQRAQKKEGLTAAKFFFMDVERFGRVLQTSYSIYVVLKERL

AaegOR15 = target: T2, AaegOR15 (Aedes aegypti, UniProt A0A6B9QIR2)
T2 sequence (A0A6B9QIR2 1-390): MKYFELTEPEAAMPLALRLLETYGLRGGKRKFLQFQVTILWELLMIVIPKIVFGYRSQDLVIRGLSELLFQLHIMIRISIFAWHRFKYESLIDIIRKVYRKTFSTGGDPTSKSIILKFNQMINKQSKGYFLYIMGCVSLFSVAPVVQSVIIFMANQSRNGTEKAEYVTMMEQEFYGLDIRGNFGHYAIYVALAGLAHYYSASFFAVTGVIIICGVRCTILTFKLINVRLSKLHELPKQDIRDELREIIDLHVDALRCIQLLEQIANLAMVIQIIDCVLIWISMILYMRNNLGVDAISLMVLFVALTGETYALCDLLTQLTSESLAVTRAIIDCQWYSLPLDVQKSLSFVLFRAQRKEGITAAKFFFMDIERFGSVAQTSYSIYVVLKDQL
T2 sequence (Q178U6 1-478 partner): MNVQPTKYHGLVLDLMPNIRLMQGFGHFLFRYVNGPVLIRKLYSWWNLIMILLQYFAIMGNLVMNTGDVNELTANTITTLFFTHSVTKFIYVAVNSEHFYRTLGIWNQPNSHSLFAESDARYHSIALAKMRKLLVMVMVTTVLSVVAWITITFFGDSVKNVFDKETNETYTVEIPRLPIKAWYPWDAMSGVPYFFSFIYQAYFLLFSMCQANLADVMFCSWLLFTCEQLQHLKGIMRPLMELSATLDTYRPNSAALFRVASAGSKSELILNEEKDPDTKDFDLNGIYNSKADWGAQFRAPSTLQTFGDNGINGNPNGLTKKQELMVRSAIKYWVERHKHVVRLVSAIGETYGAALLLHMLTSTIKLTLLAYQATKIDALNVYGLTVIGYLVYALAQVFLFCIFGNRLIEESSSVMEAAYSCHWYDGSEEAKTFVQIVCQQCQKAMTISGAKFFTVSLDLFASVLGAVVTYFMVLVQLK

CquiOR4 [2] = target: T1, CquiOR4; remark: listed apart in the source
CquiOR5 = target: T3, CquiOR5 (Culex quinquefasciatus, UniProt A0A3G1T0A9)
T3 sequence (A0A3G1T0A9 1-393): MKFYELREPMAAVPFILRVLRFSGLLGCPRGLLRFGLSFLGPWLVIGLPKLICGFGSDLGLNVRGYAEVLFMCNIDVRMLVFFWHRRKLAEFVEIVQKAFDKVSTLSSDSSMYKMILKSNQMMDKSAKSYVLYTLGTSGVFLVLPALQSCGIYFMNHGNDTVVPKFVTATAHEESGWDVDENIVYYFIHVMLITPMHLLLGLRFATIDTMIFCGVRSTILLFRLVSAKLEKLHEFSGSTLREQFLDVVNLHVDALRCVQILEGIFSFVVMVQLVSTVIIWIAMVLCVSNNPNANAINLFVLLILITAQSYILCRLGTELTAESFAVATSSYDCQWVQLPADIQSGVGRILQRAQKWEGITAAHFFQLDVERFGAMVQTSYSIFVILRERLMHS

Compound	two-electrode voltage clamp, Xenopus oocytes, concentration-response (AaegOR15)	also measured
CCC(=O)OCCc1ccccc1 [phenethyl propionate]	AaegOR15/AaegOrco-expressing oocytes generated dose-dependent, robust currents when challenged with phenethyl propionate, phenethyl formate, and acetophenone	two-electrode voltage clamp, Xenopus oocytes, concentration-response (CquiOR4 [1]): 2-Phenylethanol, phenethyl formate, and phenethyl propionate were the best ligands for CquiOR4
CC(=O)c1ccccc1 [acetophenone]	AaegOR15/AaegOrco-expressing oocytes generated dose-dependent, robust currents when challenged with phenethyl propionate, phenethyl formate, and acetophenone	
OCCc1ccccc1 [2-phenylethanol]		EC50 (CquiOR4 [2]): 28 nM
OCc1ccccc1 [benzyl alcohol]	Concentration-dependent responses of AaegOR15·AaegOrco-expressing oocytes to four major odorants	
O=COCCc1ccccc1 [phenethyl formate]	AaegOR15/AaegOrco-expressing oocytes generated dose-dependent, robust currents when challenged with phenethyl propionate, phenethyl formate, and acetophenone	
C=CC(C)(O)CCC=C(C)C (racemic) [linalool]		EC50 (CquiOR5): 574 nM
